The values below come from patent US6368812B1 (priority 1996, dated 2002).

Assay [1] deals with T1, human GALR3 (Homo sapiens, UniProt O60755).
T1 construct: The full-length human GALR3 gene contains 1107 bp within its coding region, encoding for a predicted protein of 368 aa; expressed in transfected cells
T1 sequence (O60755 1-368): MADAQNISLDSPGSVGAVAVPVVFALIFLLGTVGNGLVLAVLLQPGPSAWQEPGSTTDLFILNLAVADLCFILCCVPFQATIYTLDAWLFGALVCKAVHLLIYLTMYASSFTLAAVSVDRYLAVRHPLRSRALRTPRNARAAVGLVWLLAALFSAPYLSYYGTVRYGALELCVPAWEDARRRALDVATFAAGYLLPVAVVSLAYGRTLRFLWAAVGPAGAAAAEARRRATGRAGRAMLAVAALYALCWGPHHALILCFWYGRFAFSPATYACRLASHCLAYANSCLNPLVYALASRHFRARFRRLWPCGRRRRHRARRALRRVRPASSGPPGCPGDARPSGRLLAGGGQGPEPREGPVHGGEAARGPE
Put plainly: porcine 125I-galanin binding, LM(tk-) cells stably expressing human GALR3 (L-hGalR3-228).

The target of assay [2] is T2, rat GALR3 (Rattus norvegicus, UniProt O88626).
T2 sequence (O88626 1-370): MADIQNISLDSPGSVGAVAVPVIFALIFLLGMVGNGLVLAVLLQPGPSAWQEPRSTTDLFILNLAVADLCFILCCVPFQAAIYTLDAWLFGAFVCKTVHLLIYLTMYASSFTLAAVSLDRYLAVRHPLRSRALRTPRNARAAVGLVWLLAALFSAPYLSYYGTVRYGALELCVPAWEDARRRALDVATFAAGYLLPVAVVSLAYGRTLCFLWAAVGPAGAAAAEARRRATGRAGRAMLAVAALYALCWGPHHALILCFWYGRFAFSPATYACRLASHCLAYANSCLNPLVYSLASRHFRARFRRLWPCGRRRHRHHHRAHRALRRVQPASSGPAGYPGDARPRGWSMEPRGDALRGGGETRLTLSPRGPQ
The experiment in a line: porcine 125I-galanin binding, membranes of stable cell line 293-rGalR3-105. The settings on record: Ki (nM) Rat GALR3 293 #105, Table 9. Details: which comprises the entire coding region of rat GALR3; expressed in transfected cells.

For assay [3], the target named is T3, rat GALR1 (Rattus norvegicus, UniProt Q62805).
T3 construct: expressed in transfected cells; host or cells: CHO
T3 sequence (Q62805 1-346): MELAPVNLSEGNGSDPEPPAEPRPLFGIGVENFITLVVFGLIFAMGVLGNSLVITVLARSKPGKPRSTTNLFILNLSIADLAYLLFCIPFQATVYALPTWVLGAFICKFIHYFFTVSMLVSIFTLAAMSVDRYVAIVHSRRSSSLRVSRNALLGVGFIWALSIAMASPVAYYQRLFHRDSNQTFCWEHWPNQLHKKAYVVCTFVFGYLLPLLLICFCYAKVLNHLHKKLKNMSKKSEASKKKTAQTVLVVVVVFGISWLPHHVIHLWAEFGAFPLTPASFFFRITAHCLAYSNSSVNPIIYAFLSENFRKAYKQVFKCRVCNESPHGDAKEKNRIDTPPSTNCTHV
Put plainly: biochemical. It is filed as binding. The note with it: Table 9; read-out: Ki (nM) Rat GalR1 CHO.

Assay [4] deals with T4, rat GALR2 (Rattus norvegicus, UniProt O08726).
T4 construct: expressed in transfected cells
T4 sequence (O08726 1-372): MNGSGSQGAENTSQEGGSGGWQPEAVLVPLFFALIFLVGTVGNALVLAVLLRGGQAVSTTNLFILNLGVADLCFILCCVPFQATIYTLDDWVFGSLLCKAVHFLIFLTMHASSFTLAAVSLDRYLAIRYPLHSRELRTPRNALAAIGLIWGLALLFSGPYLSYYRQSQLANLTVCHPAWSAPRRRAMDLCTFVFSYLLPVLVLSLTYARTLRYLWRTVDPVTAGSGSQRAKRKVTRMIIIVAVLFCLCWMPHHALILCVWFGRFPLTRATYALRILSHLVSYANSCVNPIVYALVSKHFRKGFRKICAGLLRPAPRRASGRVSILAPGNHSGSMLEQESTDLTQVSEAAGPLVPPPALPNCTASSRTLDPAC
The experiment in a line: porcine 125I-galanin binding assay, Rat GALR2 LMTK #4.

In assay [5] the target is T5, Hum GALR1 (Homo sapiens, UniProt P47211).
T5 sequence (P47211 1-349): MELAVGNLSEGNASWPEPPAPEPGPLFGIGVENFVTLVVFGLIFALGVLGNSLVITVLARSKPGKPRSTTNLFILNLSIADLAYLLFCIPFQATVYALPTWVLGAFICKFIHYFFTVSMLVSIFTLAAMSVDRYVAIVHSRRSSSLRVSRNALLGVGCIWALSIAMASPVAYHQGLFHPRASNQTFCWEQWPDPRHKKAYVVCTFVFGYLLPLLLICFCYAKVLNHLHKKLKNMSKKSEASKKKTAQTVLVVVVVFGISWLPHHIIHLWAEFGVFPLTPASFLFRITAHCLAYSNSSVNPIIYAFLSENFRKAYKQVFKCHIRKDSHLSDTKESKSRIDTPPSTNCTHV
Put plainly: porcine 125I-galanin binding assay, Hum GALR1 LM(tk-). The settings on record: Table 10.

The target of assay [6] is T6, Hum GALR2 (Homo sapiens, UniProt O43603).
T6 construct: expressed in transfected cells; host or cells: CHO
T6 sequence (O43603 1-387): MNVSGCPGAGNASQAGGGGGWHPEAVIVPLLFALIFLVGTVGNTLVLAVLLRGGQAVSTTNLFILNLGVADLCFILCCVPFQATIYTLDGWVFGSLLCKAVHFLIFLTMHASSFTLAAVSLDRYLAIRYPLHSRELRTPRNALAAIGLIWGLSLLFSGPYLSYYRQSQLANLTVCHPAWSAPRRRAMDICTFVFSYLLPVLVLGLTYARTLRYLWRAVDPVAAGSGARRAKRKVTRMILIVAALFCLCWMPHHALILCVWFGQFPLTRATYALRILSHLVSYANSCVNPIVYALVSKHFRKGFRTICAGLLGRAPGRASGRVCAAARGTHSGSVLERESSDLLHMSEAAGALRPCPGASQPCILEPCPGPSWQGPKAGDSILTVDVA
Put plainly: porcine 125I-galanin binding assay, Hum GALR2 CHO.

Assay [7] addresses T7, human α1A adrenergic receptor (Homo sapiens, UniProt P35348).
T7 construct: expressed in transfected cells; host or cells: Xenopus laevis oocytes, mRNA-injected
T7 sequence (P35348 1-466): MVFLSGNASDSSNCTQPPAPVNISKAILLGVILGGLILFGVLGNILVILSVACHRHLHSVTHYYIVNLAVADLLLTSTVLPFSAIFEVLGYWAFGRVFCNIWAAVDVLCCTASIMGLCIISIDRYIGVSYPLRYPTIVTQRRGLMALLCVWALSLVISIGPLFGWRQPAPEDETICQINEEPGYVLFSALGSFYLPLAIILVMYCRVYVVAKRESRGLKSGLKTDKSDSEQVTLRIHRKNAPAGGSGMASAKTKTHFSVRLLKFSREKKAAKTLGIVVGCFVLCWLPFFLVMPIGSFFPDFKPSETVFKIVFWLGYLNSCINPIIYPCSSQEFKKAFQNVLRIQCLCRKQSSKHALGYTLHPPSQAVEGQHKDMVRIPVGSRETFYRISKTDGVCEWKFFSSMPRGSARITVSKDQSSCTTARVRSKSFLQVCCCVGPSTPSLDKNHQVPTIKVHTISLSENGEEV
The assay is classed as cell-based. As to the method: FIG. 7 Pertussis toxin sensitivity of GalR3 and GalR1 stimulation of GIRK currents. […] . Number of observations appears in parenthesis below the x-axis. Apparent absence of a bar indicates an amplitude of 0 (no response above baseline).
5′-[…] […]-3′ (SEQ ID NO. 59). […] The new plasmid was designated M52.
Experiments were carried out at room temperature.

The target in assay [8] is T1, human GALR3. Put plainly: voltage clamp currents in Xenopus oocytes expressing hGALR3 and GIRK1/GIRK4. The assay is classed as cell-based.
Procedure: Activation of inwardly rectifying currents that are sensitive to 300 μM Ba^++ signifies GALR3 coupling to a Gαi or Gαo pathway in the oocytes.
Oocytes were isolated as described above, except that 3 mg/mL collagenase was used to defolliculate the oocytes.
Assay [9] can be described thus: food intake after intracerebroventricular injection in rats. The settings on record: injected i.c.v.
Procedure: Measurement of food intake was performed for 3 hours after injection, but other protocols may also be used. Saline was injected as a control, but it is understood that other vehicles may be required as controls for some peptides and compounds. […] A preferred anatomic location for injection is the hypothalamus, in particular, the paraventricular nucleus.
In assay [10] the target is T2, rat GALR3. Put plainly: porcine 125I-galanin binding, rat GALR3 transiently expressed in COS-7 cell membranes. Details: which comprises the entire coding region of rat GALR3; expressed in transfected cells; host or cells: COS-7, transient. The settings on record: peptide displacement assays.
Procedure: Assays were conducted at room temperature for 120 minutes, and leupeptin, aprotonin and phosphoramidon were omitted from the rat GALR3 assay, while bacitracin was added to 0.1%.
Setting [11] is: Ki (nM) Hum GALR3 LMTK− #8, Table 10.

Take `CC[C@H](C)[C@H](NC(=O)[C@H](C)NC(=O)[C@H](Cc1c[nH]cn1)NC(=O)[C@@H]1CCCN1C(=O)CNC(=O)[C@H](CC(C)C)NC(=O)[C@H](CC(C)C)NC(=O)[C@H](Cc1ccc(O)c(I)c1)NC(=O)CNC(=O)[C@H](C)NC(=O)[C@H](CO)NC(=O)[C@H](CC(N)=O)NC(=O)[C@H](CC(C)C)NC(=O)[C@@H](NC(=O)[C@@H](Cc1c[nH]c2ccccc12)NC(=O)CN)[C@@H](C)O)C(=O)N[C@@H](CC(=O)O)C(=O)N[C@@H](CC(N)=O)C(=O)N[C@@H](Cc1c[nH]cn1)C(=O)N[C@@H](CCCNC(=N)N)C(=O)N[C@@H](CO)C(=O)N[C@@H](Cc1ccccc1)C(=O)N[C@@H](Cc1c[nH]cn1)C(=O)N[C@@H](CC(=O)O)C(=O)N[C@@H](CCCCN)C(=O)N[C@@H](Cc1ccc(O)c(I)c1)C(=O)NCC(=O)N[C@@H](CC(C)C)C(=O)N[C@@H](C)C(N)=O` [D-Trp2-(d-iodo-L-Tyr9)-(3-iodo-L-Tyr26)-galanin]: the values for the Ki in assay [1] (setting [11]) and in [2] were 933 nM and 182 nM, respectively.

`CC[C@H](C)[C@H](NC(=O)[C@H](C)NC(=O)[C@H](Cc1c[nH]cn1)NC(=O)[C@@H]1CCCN1C(=O)CNC(=O)[C@H](CC(C)C)NC(=O)[C@H](CC(C)C)NC(=O)[C@H](Cc1ccc(O)cc1)NC(=O)CNC(=O)[C@H](C)NC(=O)[C@H](CO)NC(=O)[C@H](CC(N)=O)NC(=O)[C@H](CC(C)C)NC(=O)[C@@H](NC(=O)[C@H](Cc1c[nH]c2ccccc12)NC(=O)CNC(=O)[C@H](CCCNC(=N)N)NC(=O)[C@H](CCCCN)NC(=O)[C@H](CCC(=O)O)NC(=O)[C@H](CCCCN)NC(=O)[C@@H](NC(=O)[C@@H]1CCCN1C(=O)[C@H](CO)NC(=O)CNC(=O)[C@@H](N)CC(C)C)C(C)C)[C@@H](C)O)C(=O)N[C@@H](CC(=O)O)C(=O)N[C@@H](CC(N)=O)C(=O)N[C@@H](Cc1c[nH]cn1)C(=O)N[C@@H](CCCNC(=N)N)C(=O)N[C@@H](CO)C(=O)N[C@@H](Cc1ccccc1)C(=O)N[C@@H](Cc1c[nH]cn1)C(=O)N[C@@H](CC(=O)O)C(=O)N[C@@H](CCCCN)C(=O)N[C@@H](Cc1ccc(O)cc1)C(=O)NCC(=O)N[C@@H](CC(C)C)C(=O)N[C@@H](C)C(N)=O` [(−)9 to (+)29 galanin, porcine]: the Ki amounted to 50.1 nM in assay [1] (setting [11]); 51.3 nM in assay [3]; 3.47 nM in assay [4]; 7.85 nM in [5]; 5.43 nM in [6]; 4.17 nM in assay [2].

With `CNC[C@H](O)c1ccc(O)c(O)c1` [epinephrine], the “Cl− currents in oocytes expressing α1a receptors” value in assay [7] is listed as “stimulates transient Cl^− currents”.

As for `CC[C@H](C)[C@H](NC(=O)[C@H](C)NC(=O)[C@H](Cc1c[nH]cn1)NC(=O)[C@@H]1CCCN1C(=O)CNC(=O)[C@H](CC(C)C)NC(=O)[C@H](CC(C)C)NC(=O)[C@H](Cc1ccc(O)cc1)NC(=O)CNC(=O)[C@H](C)NC(=O)[C@H](CO)NC(=O)[C@H](CC(N)=O)NC(=O)[C@H](CC(C)C)NC(=O)[C@@H](NC(=O)[C@H](Cc1c[nH]c2ccccc12)NC(=O)CNC(=O)[C@H](CCCNC(=N)N)NC(=O)[C@H](CCCCN)NC(=O)[C@H](CCC(=O)O)NC(=O)[C@H](CCCCN)NC(=O)[C@@H](NC(=O)[C@@H]1CCCN1C(=O)[C@@H](N)CO)C(C)C)[C@@H](C)O)C(=O)N[C@@H](CC(=O)O)C(=O)N[C@@H](CC(N)=O)C(=O)N[C@@H](Cc1c[nH]cn1)C(=O)N[C@@H](CCCNC(=N)N)C(=O)N[C@@H](CO)C(=O)N[C@@H](Cc1ccccc1)C(=O)N[C@@H](Cc1c[nH]cn1)C(=O)N[C@@H](CC(=O)O)C(=O)N[C@@H](CCCCN)C(=O)N[C@@H](Cc1ccc(O)cc1)C(=O)NCC(=O)N[C@@H](CC(C)C)C(=O)N[C@@H](C)C(N)=O` [galanin −7 to +29, (−7) to (+29) galanin, porcine], the Ki in assay [1] (setting [11]) was found to be 28.8 nM; in assay [1] (Ki (nM) Human L-hGalR3-228, Table 5, stable), 29 nM; in [1] (human GALR3LM (tk−) Ki (nM), Table 8), 28.8 nM; in [3], 36.3 nM; in [4] it was 3.16 nM; in assay [5] it was 6.84 nM. In assay [6], this compound returned a Ki of 4.95 nM. The EC50 in assay [8] worked out at 1910 nM. Besides, in assay [8], the “agonist activity at human GALR3 in oocytes” value was “evoked agonist activity”. In addition, in assay [9], the “feeding / food intake in words” value is on record as “induces feeding”. Moreover, in assay [10], the “binding affinity for rat GALR3 in words” value was “affinity comparable to that for porcine galanin”.

The Ki is a measure of affinity in units of concentration, obtained from inhibition or displacement. Usually EC50 stands for the concentration that produces a half-maximal response.
